Experimental data reported in US10632106B2, “Methods of cancer treatment with 2-(1′H-Indole-3′-carbonyl)-thiazole-4-carboxylic acid methyl ester” (Ariagen, Inc., priority 2009, dated 2020).

Assay: Effects of oral water administration on ITE dosed mice
Type: in vivo
Set-up: key to feces appearance: Moderate; Dry
Details: for feces appearance (visual): after one week of dosing
Method: Oral injection of water was initiated at the same day i.p. administration of ITE was started. Daily oral gavage at 10 or 20 ml/kg was performed immediately following daily i.p. injection of ITE or DMSO continuously for the entire duration of the study. Both oral and i.p. injection were accidentally skipped at day 14 due to a mistake of the experimenter(s) and all of the other dosing were executed normally. Bodyweights (individual), food consumed (in group), feces weights (in group), and feces appearance (in group) were recorded every two days. Death of animal(s) and approximate cause of death etc. were also recorded.

[1] = ITE-H 300 mg/kg i.p. + Water-0, day 4
[2] = ITE-H 300 mg/kg i.p. + Water-0, day 6
[3] = ITE-H 300 mg/kg i.p. + Water-0, day 8
[4] = ITE-H 300 mg/kg i.p. + Water-0, day 10
[5] = ITE-H 300 mg/kg i.p. + Water-0, day 12
[6] = ITE-H 300 mg/kg i.p. + Water-0, day 14
[7] = ITE-H 300 mg/kg i.p. + Water-0, day 18 (line r16)
[8] = ITE-H 300 mg/kg i.p. + Water-0, day 18 (line r17)
[9] = ITE-H 300 mg/kg i.p. + Water-0, day 20
[10] = ITE-H 300 mg/kg i.p. + Water-0, day 22
[11] = ITE-H 300 mg/kg i.p. + Water-0, day 24
[12] = ITE-H 300 mg/kg i.p. + Water-0, day 26
[13] = ITE-H 300 mg/kg i.p. + Water-0, day 28
[14] = ITE-H 300 mg/kg i.p. + Water-0, day 30
[15] = ITE-H 300 mg/kg i.p. + Water-0, day 32
[16] = ITE-H 300 mg/kg i.p. + Water-0, day 34
[17] = ITE-H 300 mg/kg i.p. + Water-0, day 36
[18] = ITE-H 300 mg/kg i.p. + Water-H 20 ml/kg, day 4
[19] = ITE-H 300 mg/kg i.p. + Water-H 20 ml/kg, day 6
[20] = ITE-H 300 mg/kg i.p. + Water-H 20 ml/kg, day 8
[21] = ITE-H 300 mg/kg i.p. + Water-H 20 ml/kg, day 10
[22] = ITE-H 300 mg/kg i.p. + Water-H 20 ml/kg, day 12
[23] = ITE-H 300 mg/kg i.p. + Water-H 20 ml/kg, day 14
[24] = ITE-H 300 mg/kg i.p. + Water-H 20 ml/kg, day 18 (line r16)
[25] = ITE-H 300 mg/kg i.p. + Water-H 20 ml/kg, day 18 (line r17)
[26] = ITE-H 300 mg/kg i.p. + Water-H 20 ml/kg, day 20
[27] = ITE-H 300 mg/kg i.p. + Water-H 20 ml/kg, day 22
[28] = ITE-H 300 mg/kg i.p. + Water-H 20 ml/kg, day 24
[29] = ITE-H 300 mg/kg i.p. + Water-H 20 ml/kg, day 26
[30] = ITE-H 300 mg/kg i.p. + Water-H 20 ml/kg, day 28
[31] = ITE-H 300 mg/kg i.p. + Water-H 20 ml/kg, day 30
[32] = ITE-H 300 mg/kg i.p. + Water-H 20 ml/kg, day 32
[33] = ITE-H 300 mg/kg i.p. + Water-H 20 ml/kg, day 34
[34] = ITE-H 300 mg/kg i.p. + Water-L 10 ml/kg, day 4
[35] = ITE-H 300 mg/kg i.p. + Water-L 10 ml/kg, day 6
[36] = ITE-H 300 mg/kg i.p. + Water-L 10 ml/kg, day 8
[37] = ITE-H 300 mg/kg i.p. + Water-L 10 ml/kg, day 10
[38] = ITE-H 300 mg/kg i.p. + Water-L 10 ml/kg, day 12
[39] = ITE-H 300 mg/kg i.p. + Water-L 10 ml/kg, day 14
[40] = ITE-H 300 mg/kg i.p. + Water-L 10 ml/kg, day 18 (line r16)
[41] = ITE-H 300 mg/kg i.p. + Water-L 10 ml/kg, day 18 (line r17)
[42] = ITE-H 300 mg/kg i.p. + Water-L 10 ml/kg, day 20
[43] = ITE-H 300 mg/kg i.p. + Water-L 10 ml/kg, day 22
[44] = ITE-H 300 mg/kg i.p. + Water-L 10 ml/kg, day 24
[45] = ITE-H 300 mg/kg i.p. + Water-L 10 ml/kg, day 26
[46] = ITE-H 300 mg/kg i.p. + Water-L 10 ml/kg, day 28
[47] = ITE-H 300 mg/kg i.p. + Water-L 10 ml/kg, day 30
[48] = ITE-H 300 mg/kg i.p. + Water-L 10 ml/kg, day 32
[49] = ITE-H 300 mg/kg i.p. + Water-L 10 ml/kg, day 34

Compound: COC(=O)c1csc(C(=O)c2c[nH]c3ccccc23)n1 [ITE, 2-(1′H-indole-3′-carbonyl)-thiazole-4-carboxylic acid methyl ester]
- feces appearance (visual) (ITE high (300 mg/kg)): dry
- day at which one mouse died (ITE high dose (300 mg/kg) without oral water administration): 36 days
- feces appearance (visual) (ITE low (200 mg/kg)): dry
- day at which one mouse died (ITE low dose (200 mg/kg) without oral water administration): 28 days
- feces appearance [1]: M
- number of mice that died [1]: 0
- feces appearance [2]: M
- number of mice that died [2]: 0
- feces appearance [3]: D
- number of mice that died [3]: 0
- feces appearance [4]: D
- number of mice that died [4]: 0
- feces appearance [5]: D
- number of mice that died [5]: 0
- feces appearance [6]: D
- number of mice that died [6]: 0
- feces appearance [7]: D
- number of mice that died [7]: 0
- feces appearance [8]: D
- number of mice that died [8]: 0
- feces appearance [9]: D
- number of mice that died [9]: 0
- feces appearance [10]: D
- number of mice that died [10]: 0
- feces appearance [11]: D
- number of mice that died [11]: 0
- feces appearance [12]: D
- number of mice that died [12]: 0
- feces appearance [13]: D
- number of mice that died [13]: 0
- feces appearance [14]: D
- number of mice that died [14]: 0
- feces appearance [15]: D
- number of mice that died [15]: 0
- feces appearance [16]: D
- number of mice that died [16]: 0
- feces appearance [17]: D
- number of mice that died [17]: 1
- feces appearance [18]: M
- number of mice that died [18]: 0
- feces appearance [19]: M
- number of mice that died [19]: 0
- feces appearance [20]: D
- number of mice that died [20]: 0
- feces appearance [21]: D
- number of mice that died [21]: 0
- feces appearance [22]: D
- number of mice that died [22]: 0
- feces appearance [23]: D
- number of mice that died [23]: 0
- feces appearance [24]: D
- number of mice that died [24]: 0
- feces appearance [25]: D
- number of mice that died [25]: 0
- feces appearance [26]: D
- number of mice that died [26]: 0
- feces appearance [27]: D
- number of mice that died [27]: 0
- feces appearance [28]: D
- number of mice that died [28]: 0
- feces appearance [29]: D
- number of mice that died [29]: 0
- feces appearance [30]: M
- number of mice that died [30]: 0
- feces appearance [31]: M
- number of mice that died [31]: 0
- feces appearance [32]: M
- number of mice that died [32]: 0
- feces appearance [33]: M
- number of mice that died [33]: 0
- feces appearance [34]: M
- number of mice that died [34]: 0
- feces appearance [35]: M
- number of mice that died [35]: 0
- feces appearance [36]: D
- number of mice that died [36]: 0
- feces appearance [37]: D
- number of mice that died [37]: 0
- feces appearance [38]: D
- number of mice that died [38]: 0
- feces appearance [39]: D
- number of mice that died [39]: 0
- feces appearance [40]: D
- number of mice that died [40]: 0
- feces appearance [41]: D
- number of mice that died [41]: 0
- feces appearance [42]: D
- number of mice that died [42]: 0
- feces appearance [43]: D
- number of mice that died [43]: 0
- feces appearance [44]: D
- number of mice that died [44]: 0
- feces appearance [45]: D
- number of mice that died [45]: 0
- feces appearance [46]: M
- number of mice that died [46]: 0
- feces appearance [47]: M
- number of mice that died [47]: 0
- feces appearance [48]: M
- number of mice that died [48]: 0
- feces appearance [49]: M
- number of mice that died [49]: 0
